Test results reported in PubChem BioAssay (NCI).
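These data come from cells grown in 96-well plates and exposed to compound for 48 hours at five concentrations. TGI is the concentration that stops growth completely.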

Tests used:
Assay in all cases: NCI-60 cell line screen, 48 h
MOLT-4 leukemia = tested on: MOLT-4 leukemia
HS 578T breast = tested on: HS 578T breast
NCI-H460 lung = tested on: NCI-H460 lung
TK-10 renal = tested on: TK-10 renal
SNB-75 CNS = tested on: SNB-75 CNS
U251 CNS = tested on: U251 CNS
ACHN renal = tested on: ACHN renal
SK-MEL-5 melanoma = tested on: SK-MEL-5 melanoma
MDA-MB-231 breast = tested on: MDA-MB-231 breast
MCF7 breast = tested on: MCF7 breast
SK-MEL-2 melanoma = tested on: SK-MEL-2 melanoma
SR leukemia = tested on: SR leukemia
SK-MEL-28 melanoma = tested on: SK-MEL-28 melanoma
UACC-257 melanoma = tested on: UACC-257 melanoma
NCI-H23 lung = tested on: NCI-H23 lung
HOP-62 NSCLC = tested on: HOP-62 NSCLC
UACC-62 melanoma = tested on: UACC-62 melanoma
KM12 colon = tested on: KM12 colon
UO-31 renal = tested on: UO-31 renal
HCT-116 colon = tested on: HCT-116 colon
SK-OV-3 ovarian = tested on: SK-OV-3 ovarian
DU-145 prostate = tested on: DU-145 prostate
SW-620 colon = tested on: SW-620 colon
NCI/ADR-RES ovarian = tested on: NCI/ADR-RES ovarian
MDA-N = tested on: MDA-N
OVCAR-4 ovarian = tested on: OVCAR-4 ovarian
MALME-3M melanoma = tested on: MALME-3M melanoma
OVCAR-5 ovarian = tested on: OVCAR-5 ovarian
LOX IMVI melanoma = tested on: LOX IMVI melanoma
NCI-H226 lung = tested on: NCI-H226 lung
HCC-2998 colon = tested on: HCC-2998 colon
786-0 renal = tested on: 786-0 renal
COLO 205 colon = tested on: COLO 205 colon
MDA-MB-435 = tested on: MDA-MB-435
IGROV1 ovarian = tested on: IGROV1 ovarian
SNB-19 CNS = tested on: SNB-19 CNS
HT29 colon = tested on: HT29 colon
M14 melanoma = tested on: M14 melanoma
A549 NSCLC = tested on: A549 NSCLC
K-562 leukemia = tested on: K-562 leukemia
PC-3 prostate = tested on: PC-3 prostate
OVCAR-3 ovarian = tested on: OVCAR-3 ovarian
T-47D breast = tested on: T-47D breast
SN12C renal = tested on: SN12C renal
RPMI-8226 leukemia = tested on: RPMI-8226 leukemia
EKVX NSCLC = tested on: EKVX NSCLC
SF-295 CNS = tested on: SF-295 CNS
SF-268 CNS = tested on: SF-268 CNS
OVCAR-8 ovarian = tested on: OVCAR-8 ovarian
SF-539 CNS = tested on: SF-539 CNS
BT-549 breast = tested on: BT-549 breast
HCT-15 colon = tested on: HCT-15 colon
NCI-H522 lung = tested on: NCI-H522 lung
HL-60(TB) leukemia = tested on: HL-60(TB) leukemia
CAKI-1 renal = tested on: CAKI-1 renal
RXF 393 renal = tested on: RXF 393 renal
CCRF-CEM leukemia = tested on: CCRF-CEM leukemia
A498 renal = tested on: A498 renal
HOP-92 NSCLC = tested on: HOP-92 NSCLC

Measured: TGI

c1cc(CN2CCNCCNCCNCC2)cc(CN2CCNCCNCCNCC2)c1
> 100 µM: MOLT-4 leukemia | HS 578T breast | NCI-H460 lung | TK-10 renal | SNB-75 CNS | U251 CNS | ACHN renal | SK-MEL-5 melanoma | MDA-MB-231 breast | MCF7 breast | SK-MEL-2 melanoma | SR leukemia | SK-MEL-28 melanoma | UACC-257 melanoma | NCI-H23 lung | HOP-62 NSCLC | UACC-62 melanoma | KM12 colon | UO-31 renal | HCT-116 colon | SK-OV-3 ovarian | DU-145 prostate | SW-620 colon | NCI/ADR-RES ovarian | MDA-N | OVCAR-4 ovarian | MALME-3M melanoma | OVCAR-5 ovarian | LOX IMVI melanoma | NCI-H226 lung | HCC-2998 colon | 786-0 renal | COLO 205 colon | MDA-MB-435 | IGROV1 ovarian | SNB-19 CNS | HT29 colon | M14 melanoma | A549 NSCLC | K-562 leukemia | PC-3 prostate | OVCAR-3 ovarian | T-47D breast | SN12C renal | RPMI-8226 leukemia | EKVX NSCLC | SF-295 CNS | SF-268 CNS | OVCAR-8 ovarian | SF-539 CNS | BT-549 breast

C/C(N)=N/OCc1nc(C)no1
> 100 µM: HCT-15 colon | MOLT-4 leukemia | HS 578T breast | NCI-H460 lung | TK-10 renal | SNB-75 CNS | U251 CNS | ACHN renal | SK-MEL-5 melanoma | MDA-MB-231 breast | MCF7 breast | SR leukemia | SK-MEL-28 melanoma | NCI-H522 lung | UACC-257 melanoma | NCI-H23 lung | HOP-62 NSCLC | UACC-62 melanoma | KM12 colon | HL-60(TB) leukemia | CAKI-1 renal | UO-31 renal | HCT-116 colon | SK-OV-3 ovarian | DU-145 prostate | SW-620 colon | RXF 393 renal | NCI/ADR-RES ovarian | MDA-N | OVCAR-4 ovarian | HCC-2998 colon | 786-0 renal | COLO 205 colon | MDA-MB-435 | SNB-19 CNS | HT29 colon | M14 melanoma | A549 NSCLC | K-562 leukemia | PC-3 prostate | CCRF-CEM leukemia | OVCAR-3 ovarian | T-47D breast | SN12C renal | RPMI-8226 leukemia | EKVX NSCLC | SF-295 CNS | SF-268 CNS | OVCAR-8 ovarian | SF-539 CNS | BT-549 breast

Cc1ccc(/C=C2\Cc3cc(C)c(C)cc3C2=O)c(C(=O)O)c1
82.6 µM: BT-549 breast
> 100 µM: HCT-15 colon | MOLT-4 leukemia | HS 578T breast | NCI-H460 lung | TK-10 renal | SNB-75 CNS | U251 CNS | ACHN renal | SK-MEL-5 melanoma | MDA-MB-231 breast | MCF7 breast | SK-MEL-2 melanoma | SR leukemia | SK-MEL-28 melanoma | NCI-H522 lung | UACC-257 melanoma | HOP-62 NSCLC | UACC-62 melanoma | KM12 colon | HL-60(TB) leukemia | CAKI-1 renal | UO-31 renal | HCT-116 colon | DU-145 prostate | SW-620 colon | RXF 393 renal | MDA-N | MALME-3M melanoma | LOX IMVI melanoma | HCC-2998 colon | 786-0 renal | IGROV1 ovarian | SNB-19 CNS | HT29 colon | A549 NSCLC | K-562 leukemia | PC-3 prostate | CCRF-CEM leukemia | OVCAR-3 ovarian | T-47D breast | SN12C renal | RPMI-8226 leukemia | EKVX NSCLC | SF-295 CNS | SF-268 CNS | OVCAR-8 ovarian
89.1 µM: NCI-H226 lung
61.3 µM: A498 renal
74.7 µM: SF-539 CNS

C[C@H](NC(=O)CNC(=O)CCCCCC(=O)NCC(=O)N[C@@H](C)C(=O)OCc1ccccc1)C(=O)OCc1ccccc1
> 100 µM: HCT-15 colon | MOLT-4 leukemia | HS 578T breast | TK-10 renal | SNB-75 CNS | U251 CNS | ACHN renal | MDA-MB-231 breast | MCF7 breast | SK-MEL-2 melanoma | SR leukemia | SK-MEL-28 melanoma | UACC-257 melanoma | NCI-H23 lung | HOP-62 NSCLC | UACC-62 melanoma | KM12 colon | CAKI-1 renal | HCT-116 colon | SK-OV-3 ovarian | DU-145 prostate | SW-620 colon | RXF 393 renal | NCI/ADR-RES ovarian | MDA-N | OVCAR-4 ovarian | MALME-3M melanoma | OVCAR-5 ovarian | LOX IMVI melanoma | NCI-H226 lung | HCC-2998 colon | 786-0 renal | COLO 205 colon | MDA-MB-435 | IGROV1 ovarian | SNB-19 CNS | HT29 colon | M14 melanoma | A549 NSCLC | K-562 leukemia | PC-3 prostate | CCRF-CEM leukemia | OVCAR-3 ovarian | T-47D breast | SN12C renal | RPMI-8226 leukemia | EKVX NSCLC | SF-295 CNS | SF-268 CNS | OVCAR-8 ovarian | HOP-92 NSCLC | SF-539 CNS | BT-549 breast
